Data as given in patent US20130197085A1, “AGENT AND METHOD FOR STABILIZING MEMBRANE PROTEIN” (priority 2007, published 2013).

Target: T1, BSEP expressing on canalicular membrane (Rattus norvegicus, UniProt O70127)
T1 construct: from tissue; host or cells: liver of male SD rats: in vivo for A27, canalicular membrane vesicles for A28 and A29
T1 sequence (O70127 1-1321): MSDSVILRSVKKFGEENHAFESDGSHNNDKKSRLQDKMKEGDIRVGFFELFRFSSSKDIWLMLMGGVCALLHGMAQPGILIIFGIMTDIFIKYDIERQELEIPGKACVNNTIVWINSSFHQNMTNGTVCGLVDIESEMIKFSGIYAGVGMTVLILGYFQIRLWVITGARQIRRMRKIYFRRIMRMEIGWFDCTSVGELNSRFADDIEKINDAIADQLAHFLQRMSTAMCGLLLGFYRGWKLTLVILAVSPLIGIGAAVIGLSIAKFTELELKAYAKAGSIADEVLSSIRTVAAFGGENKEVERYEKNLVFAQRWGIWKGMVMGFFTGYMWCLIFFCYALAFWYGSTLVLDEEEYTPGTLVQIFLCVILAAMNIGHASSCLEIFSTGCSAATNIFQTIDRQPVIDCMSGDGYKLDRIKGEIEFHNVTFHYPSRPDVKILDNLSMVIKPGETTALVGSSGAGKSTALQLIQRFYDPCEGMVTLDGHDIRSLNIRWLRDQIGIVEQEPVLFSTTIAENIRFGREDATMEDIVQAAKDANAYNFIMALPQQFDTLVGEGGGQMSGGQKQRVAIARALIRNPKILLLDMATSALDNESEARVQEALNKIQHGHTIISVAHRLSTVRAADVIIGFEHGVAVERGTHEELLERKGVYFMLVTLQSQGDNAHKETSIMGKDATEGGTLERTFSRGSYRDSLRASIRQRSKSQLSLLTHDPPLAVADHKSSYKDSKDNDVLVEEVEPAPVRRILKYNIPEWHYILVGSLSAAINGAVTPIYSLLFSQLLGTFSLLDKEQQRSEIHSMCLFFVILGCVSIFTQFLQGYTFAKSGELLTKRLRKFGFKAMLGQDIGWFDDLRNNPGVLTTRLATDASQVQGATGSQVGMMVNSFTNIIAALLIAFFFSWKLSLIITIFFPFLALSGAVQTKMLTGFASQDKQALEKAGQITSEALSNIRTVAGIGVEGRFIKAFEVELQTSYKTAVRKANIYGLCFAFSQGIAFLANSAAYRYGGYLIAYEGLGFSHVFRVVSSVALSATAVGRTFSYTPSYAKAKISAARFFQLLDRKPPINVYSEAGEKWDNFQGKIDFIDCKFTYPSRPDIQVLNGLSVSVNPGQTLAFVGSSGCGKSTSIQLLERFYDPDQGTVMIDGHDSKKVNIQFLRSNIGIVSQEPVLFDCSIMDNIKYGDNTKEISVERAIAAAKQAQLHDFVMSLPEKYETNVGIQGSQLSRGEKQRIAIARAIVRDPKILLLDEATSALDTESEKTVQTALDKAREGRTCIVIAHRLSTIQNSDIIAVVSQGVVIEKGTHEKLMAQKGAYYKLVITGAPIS
Experiment: [^3H] TC injection experiment in vivo with pharmacokinetic analysis
Set-up: species or system SD rat
Settings: for CLbile, liver / CLbile, plasma / CLtotal / Css, liver / Css, plasma: [^3H] TC, mean ± standard error
Method: Male SD rats (6- to 7-week-old) were purchased from Nippon SLC. All the animals were bred under day-night reversal conditions. They were treated under standard conditions based on the protection of animals. Feed and water were given without any limitation.
It is to be noted that the present study was carried out in accordance with the guidelines determined by the animal experiment committee in the university. 4PBA or a vehicle was given to each SD rat via a tube, for a certain period of time (5, 10, and 15 days), at various doses ([…]). After completion of the 4PBA treatment, a [^3H] TC injection experiment was carried out in vivo (see Hirano et al., Mol Pharmacol 68: 800-807. 2005). [^3H] TC dissolved in a normal saline was injected into each rat, via a cannula inserted into the femoral vein thereof, at a rate of 70 ng/min/kg for 90 minutes. Blood and bile were collected for a certain period of time. Radioactivity in plasma, bile, and liver was measured.
The total clearance of plasma (CLtotal) the clearance of bile standardized with circulating plasma (CLbile, plasma), and the clearance of bile standardized with the concentration in the liver (CLbile, liver) were calculated using the following formulae:
CLbile, plasma=Vss, bile/Css, plasma; and
CLbile, liver=Vss, bile/Css, liver
(wherein “I,” “Css, plasma,” Vss, bile” and “Css, and liver” represent, respectively, an injection rate (ng/min/kg), a plasma concentration in a steady state ([…]), a bile elimination rate in a steady state (ng/min/kg), and a mean liver concentration (ng/ml)). The plasma concentration in a steady state (Css, plasma) indicates the mean value of plasma [^3H] TC concentrations at time points of 15, 30, 60, and 90 minutes. The bile elimination rate (Vss, bile) indicates the mean value of the bile elimination rates of [^3H] TC at time points of 10-15 minutes, 25-30 minutes, 55-60 minutes, and 85-90 minutes. The mean liver concentration (Css, liver) indicates the mean value of liver [^3H] TC concentrations at the termination of the in vivo experiment.

[1] = 4PBA (0.2 g/kg/day), N = 3, SD rats
[2] = 4PBA (0.6 g/kg/day), N = 9, SD rats
[3] = 4PBA (2.4 g/kg/day), N = 3, SD rats

O=C(O)CCCc1ccccc1 [4PBA, 4-phenylbutyric acid]
CLbile, liver with respect to [^3H] TC, greater than vehicle-treated rats (0.6 k/kg/day for 10 days): 2 times | CLbile, plasma with respect to [^3H] TC, 4PBA-treated vs vehicle-treated SD rats (0.6 k/kg/day for 10 days): no significant difference | CLtotal with respect to [^3H] TC, 4PBA-treated vs vehicle-treated SD rats (0.6 k/kg/day for 10 days): no significant difference | Css, liver of [^3H] TC as fraction of that in vehicle-treated SD rats (0.6 k/kg/day for 10 days): ½ | Css, plasma of [^3H] TC, 4PBA-treated vs vehicle-treated SD rats (0.6 k/kg/day for 10 days): no significant difference | Vss, bile of [^3H] TC, 4PBA-treated vs vehicle-treated SD rats (0.6 k/kg/day for 10 days): no significant difference | CLbile, liver [1]: 19.0 ± 3.9 mL/min/kg | CLbile, plasma [1]: 26.3 ± 2.0 mL/min/kg | CLtotal [1]: 26.6 ± 3.8 mL/min/kg | Css, liver [1]: 3.8 ± 0.7 ng/mL | Css, plasma [1]: 2.6 ± 0.2 ng/mL | CLbile, liver [2]: 29.3 ± 6.1 mL/min/kg | CLbile, plasma [2]: 32.3 ± 2.9 mL/min/kg | CLtotal [2]: 30.7 ± 3.7 mL/min/kg | Css, liver [2]: 2.6 ± 0.5 ng/mL | Css, plasma [2]: 2.0 ± 0.2 ng/mL | CLbile, liver [3]: 19.2 ± 3.2 mL/min/kg | CLbile, plasma [3]: 23.9 ± 4.7 mL/min/kg | CLtotal [3]: 29.6 ± 3.5 mL/min/kg | Css, liver [3]: 5.9 ± 1.8 ng/mL | Css, plasma [3]: 3.3 ± 0.7 ng/mL | CLbile, liver (4PBA (5 days), N = 6, SD rats): 21.7 ± 3.0 mL/min/kg | CLbile, plasma (4PBA (5 days), N = 6, SD rats): 32.3 ± 8.5 mL/min/kg | CLtotal (4PBA (5 days), N = 6, SD rats): 26.6 ± 3.8 mL/min/kg | Css, liver (4PBA (5 days), N = 6, SD rats): 3.1 ± 0.5 ng/mL | Css, plasma (4PBA (5 days), N = 6, SD rats): 2.3 ± 0.3 ng/mL | CLbile, liver (4PBA (10 days), N = 9, SD rats): 29.3 ± 6.1 mL/min/kg | CLbile, plasma (4PBA (10 days), N = 9, SD rats): 32.3 ± 2.9 mL/min/kg | CLtotal (4PBA (10 days), N = 9, SD rats): 30.7 ± 3.7 mL/min/kg | Css, liver (4PBA (10 days), N = 9, SD rats): 2.6 ± 0.5 ng/mL | Css, plasma (4PBA (10 days), N = 9, SD rats): 2.0 ± 0.2 ng/mL | CLbile, liver (4PBA (15 days), N = 3, SD rats): 29.9 ± 1.5 mL/min/kg | CLbile, plasma (4PBA (15 days), N = 3, SD rats): 33.2 ± 2.0 mL/min/kg | CLtotal (4PBA (15 days), N = 3, SD rats): 27.5 ± 2.7 mL/min/kg | Css, liver (4PBA (15 days), N = 3, SD rats): 2.3 ± 0.2 ng/mL | Css, plasma (4PBA (15 days), N = 3, SD rats): 2.1 ± 0.2 ng/mL | side effects (SD rats, under all conditions (various times and doses)): No clear side effects were recognized
